This note sets out measurements from US9163011B2, “Oxazine derivatives and their use in the treatment of disease” (NOVARTIS AG, priority 2011, dated 2015).

By IC50 is commonly meant the concentration that gives 50% inhibition.

One assay deals with Human BACE-1 (Homo sapiens (Human), UniProt P56817). Description: Test 1: Inhibition of Human BACE-1. The class given is biochemical. The settings on record: recombinant BACE-1, pH 4.5, 1 hour preincubation. How it is done:
Test 1: Inhibition of Human BACE-1
(§1) Recombinant BACE-1 (extracellular domain, expressed in baculovirus and purified using standard methods) at 0.1 to 1 nM concentrations is incubated with the test compound at various concentrations for 1 hour at room temperature in 100 mM acetate buffer, pH 4.5, containing 0.1% CHAPS. Activity was measured using a final concentration of 3 μM of the fluorescence-quenched substrate Q-C(HSO3)-Ile-Asp-Leu-Ala-Val-Leu-Asp-HN—CH2—CH2-Mca, where Q=2-nitro-5-amino benzoic acid and Mca=7-methoxy-4-coumarinyl acetic acid. Catalytic turnover was monitored in a Spectramax Gemini fluorescence plate reader (Molecular Devices) in black 96-well microplates using excitation/emission wavelength of 325 nm and 400 nm, respectively. Fluorescence increase was followed for 15 min, in 1 minute's intervals. The fluorescence/time slopes were calculated from duplicate wells and from wells without inhibitor and the IC50 values were calculated using a logistic 4-parameter model.

Another assay addresses Human BACE-2 (Homo sapiens (Human), UniProt Q9Y5Z0). Description: Test 2: Inhibition of Human BACE-2. The class given is biochemical. The settings on record: recombinant BACE-2, pH 4.5, 1 hour preincubation. Here is the method: Test 2: Inhibition of Human BACE-2
as §1, with “BACE-2” for “BACE-1”

Assay [1] in a line: Test 4: Inhibition of Cellular Release of Amyloid Peptide 1-40. The class given is cell-based, Chinese hamster. The settings on record: Cricetulus griseus; CHO cells with human APP, 24 hours with compound; read-out: Test 4 Amyloid-β1-40 release IC50. How it is done:
The cells are plated at a density of 8000 cells/well into 96-well microtiter plates and cultivated for 24 hours in DMEM cell culture medium containing 10% FCS. The test compound is added to the cells at various concentrations, and the cells are cultivated for 24 hours in the presence of the test compound. […] The potency of the compound is calculated from the percentage of inhibition of amyloid peptide release as a function of the test compound concentration.

Sequence of Human BACE-1 (P56817 46-457): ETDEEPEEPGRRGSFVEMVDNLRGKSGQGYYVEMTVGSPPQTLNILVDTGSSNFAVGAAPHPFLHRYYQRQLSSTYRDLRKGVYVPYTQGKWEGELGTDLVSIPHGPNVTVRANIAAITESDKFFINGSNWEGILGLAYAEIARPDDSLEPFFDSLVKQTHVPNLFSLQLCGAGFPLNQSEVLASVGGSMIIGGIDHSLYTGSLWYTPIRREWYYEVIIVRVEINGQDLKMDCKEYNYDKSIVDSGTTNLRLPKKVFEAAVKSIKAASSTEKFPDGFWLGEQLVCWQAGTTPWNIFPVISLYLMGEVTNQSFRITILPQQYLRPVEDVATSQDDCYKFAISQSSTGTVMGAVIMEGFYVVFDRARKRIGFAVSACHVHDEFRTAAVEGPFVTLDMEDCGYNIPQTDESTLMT
Sequence of Human BACE-2 (Q9Y5Z0 63-473): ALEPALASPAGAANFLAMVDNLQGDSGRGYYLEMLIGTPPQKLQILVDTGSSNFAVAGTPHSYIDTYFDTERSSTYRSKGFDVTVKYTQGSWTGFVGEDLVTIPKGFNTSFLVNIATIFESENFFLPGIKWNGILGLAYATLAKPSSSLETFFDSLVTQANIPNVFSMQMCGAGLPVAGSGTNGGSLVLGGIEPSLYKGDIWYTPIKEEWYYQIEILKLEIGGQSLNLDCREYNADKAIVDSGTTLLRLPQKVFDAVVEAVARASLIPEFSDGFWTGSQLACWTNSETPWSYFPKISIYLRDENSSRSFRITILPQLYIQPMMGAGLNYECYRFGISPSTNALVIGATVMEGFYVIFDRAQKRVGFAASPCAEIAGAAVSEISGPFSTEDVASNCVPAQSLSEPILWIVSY

In the case of `[2H]C([2H])([2H])C([2H])([2H])Oc1cnc(C(=O)Nc2ccc(F)c([C@@]3(C)N=C(N)OCC3(F)F)n2)c(N)n1` [Example 28, 3-Amino-5-(penta-deutero-ethoxy)-pyrazine-2-carboxylic acid [6-((R)-2-amino-5,5-difluoro-4-methyl-5,6-dihydro-4H-[1,3]oxazin-4-yl)-5-fluoro-pyridin-2-yl]-amide], the half-inhibitory concentration (IC50) on Human BACE-1 amounted to 1900 nM; at Human BACE-2, 10000 nM; in assay [1], 840 nM.
In the same order, the values of `C[C@]1(c2nc(NC(=O)c3ncc(C(F)(F)F)nc3N)ccc2F)N=C(N)OCC1(F)F` [Example 8, 3-Amino-5-trifluoromethyl-pyrazine-2-carboxylic acid [6-((R)-2-amino-5,5-difluoro-4-methyl-5,6-dihydro-4H-[1,3]oxazin-4-yl)-5-fluoro-pyridin-2-yl]-amide] are 160 nM, 1400 nM and 140 nM.
In the same order, the values of `COCC#Cc1cnc(C(=O)Nc2ccc(F)c([C@@]3(C)N=C(N)OCC3(F)F)n2)c(Cl)c1` [Example 21, 3-Chloro-5-(3-methoxy-prop-1-ynyl)pyridine-2-carboxylic acid [6-((R)-2-amino-5,5-difluoro-4-methyl-5,6-dihydro-4H-[1,3]oxazin-4-yl)-5-fluoro-pyridin-2-yl]-amide] are 83 nM, 840 nM and 81 nM.
In the same order, the values of `CC(F)(F)c1nc(N)c(C(=O)Nc2ccc(F)c([C@@]3(C)N=C(N)OCC3(F)F)n2)nc1Cl` [Example 34, 3-Amino-6-chloro-5-(1,1-difluoro-ethyl)-pyrazine-2-carboxylic acid [6-((R)-2-amino-5,5-difluoro-4-methyl-5,6-dihydro-4H-[1,3]oxazin-4-yl)-5-fluoro-pyridin-2-yl]-amide] are above 10000 nM, above 10000 nM and 6500 nM.
`C[C@]1(c2nc(NC(=O)c3ncc(OCC(F)F)nc3N)ccc2F)N=C(N)OCC1(F)F` [Example 11, 3-Amino-5-(2,2-difluoro-ethoxy)-pyrazine-2-carboxylic acid [6-((R)-2-amino-5,5-difluoro-4-methyl-5,6-dihydro-4H-[1,3]oxazin-4-yl)-5-fluoro-pyridin-2-yl]-amide]: the IC50 is 830 nM on Human BACE-1, 2900 nM on Human BACE-2 and 440 nM in assay [1].
For `CCOc1cnc(C(=O)Nc2ccc(F)c([C@@]3(C)N=C(N)OCC3(F)F)n2)c(Cl)c1` [Example 27, 3-Chloro-5-ethoxy-pyridine-2-carboxylic acid [6-((R)-2-amino-5,5-difluoro-4-methyl-5,6-dihydro-4H-[1,3]oxazin-4-yl)-5-fluoro-pyridin-2-yl]-amide], the figures for the IC50 (on Human BACE-1; at Human BACE-2; in assay [1]) were 290 nM, 420 nM and 450 nM, respectively.
In the same order, the values of `C[C@]1(c2nc(NC(=O)c3ncc(OCF)cc3Cl)ccc2F)N=C(N)OCC1(F)F` [Example 26, 3-Chloro-5-fluoromethoxy-pyridine-2-carboxylic acid [6-((R)-2-amino-5,5-difluoro-4-methyl-5,6-dihydro-4H-[1,3]oxazin-4-yl)-5-fluoro-pyridin-2-yl]-amide] are 110 nM, 27 nM and 57 nM.
In the same order, the values of `C[C@]1(c2nc(NC(=O)c3ncc(C#CCO)cc3N)ccc2F)N=C(N)OCC1(F)F` [Example 17, 3-Amino-5-(3-hydroxy-prop-1-ynyl)-pyridine-2-carboxylic acid [6-((R)-2-amino-5,5-difluoro-4-methyl-5,6-dihydro-4H-[1,3]oxazin-4-yl)-5-fluoro-pyridin-2-yl]-amide] are 240 nM, 8200 nM and 62 nM.
On to `C[C@]1(c2nc(NC(=O)c3ncc(F)cc3N)ccc2F)N=C(N)OCC1(F)F` [Example 18, 3-Amino-5-fluoro-pyridine-2-carboxylic acid [6-((R)-2-amino-5,5-difluoro-4-methyl-5,6-dihydro-4H-[1,3]oxazin-4-yl)-5-fluoro-pyridin-2-yl]-amide], for which the 50% inhibitory concentration (IC50) at Human BACE-1 was 330 nM; at Human BACE-2 it was 120 nM; in assay [1] it was 88 nM.
In the same order, the values of `C[C@]1(c2nc(NC(=O)c3ncc(OCC(F)(F)F)nc3N)ccc2F)N=C(N)OCC1(F)F` [Example 10, 3-Amino-5-(2,2,2-trifluoro-ethoxy)pyrazine-2-carboxylic acid [6-((R)-2-amino-5,5-difluoro-4-methyl-5,6-dihydro-4H-[1,3]oxazin-4-yl)-5-fluoro-pyridin-2-yl]-amide] are 590 nM, 3800 nM and 600 nM.
In the same order, the values of `COCC[C@]1(c2nc(NC(=O)c3ncc(C(F)(F)F)cc3Cl)ccc2F)N=C(N)OCC1(F)F` [Example 6, 3-Chloro-5-trifluoromethyl-pyridine-2-carboxylic acid {6-[(R)-2-amino-5,5-difluoro-4-(2-methoxy-ethyl)-5,6-dihydro-4H-[1,3]oxazin-4-yl]-5-fluoro-pyridin-2-yl}-amide] are 650 nM, 6600 nM and 380 nM.
In the same order, the values of `C[C@]1(c2nc(NC(=O)c3ncc(C#CCO)cc3Cl)ccc2F)N=C(N)OCC1(F)F` [Example 32, 3-Chloro-5-(3-hydroxy-prop-1-ynyl)-pyridine-2-carboxylic acid [6-((R)-2-amino-5,5-difluoro-4-methyl-5,6-dihydro-4H-[1,3]oxazin-4-yl)-5-fluoro-pyridin-2-yl]-amide] are 60 nM, 930 nM and 19 nM.
In the case of `C[C@]1(c2nc(NC(=O)c3ncc(C(F)F)cc3N)ccc2F)N=C(N)OCC1(F)F` [Example 33, 3-Amino-5-difluoromethyl-pyridine-2-carboxylic acid [6-((R)-2-amino-5,5-difluoro-4-methyl-5,6-dihydro-4H-[1,3]oxazin-4-yl)-5-fluoro-pyridin-2-yl]-amide], the figures for the IC50 (at Human BACE-1; on Human BACE-2; in assay [1]) were 140 nM, 260 nM and 66 nM, respectively.
In the same order, the values of `C[C@]1(c2nc(NC(=O)c3ncccc3Cl)ccc2F)N=C(N)OCC1(F)F` [Example 20, 3-Chloro-pyridine-2-carboxylic acid [6-((R)-2-amino-5,5-difluoro-4-methyl-5,6-dihydro-4H-[1,3]oxazin-4-yl)-5-fluoro-pyridin-2-yl]-amide] are 360 nM, 95 nM and 88 nM.
In the same order, the values of `C[C@]1(c2nc(NC(=O)c3ncc(Cl)cc3Cl)ccc2F)N=C(N)OCC1(F)F` [Example 9, 3,5-Dichloro-pyridine-2-carboxylic acid [6-((R)-2-amino-5,5-difluoro-4-methyl-5,6-dihydro-4H-[1,3]oxazin-4-yl)-5-fluoro-pyridin-2-yl]-amide] are 18 nM, 4 nM and 12 nM.
